Here are results for two compounds from PMC9728906 (2022).

Assay [1] concerns human telomeric G-quadruplex DNA, AG3(TTAGGG)3 (DNA, G4) AGGGTTAGGGTTAGGGTTAGGG
The assay is described as follows: fluorescence titration, modified Scatchard, non-linear fit (r versus Cf). Particulars: 100 mM KCl; 10 mM Tris-HCl, 1 mM Na2EDTA, pH 7.4, ≤10% ethylene glycol; 5 µM compound; average over sites.

For assay [2] the test system is unchanged. Nature of the assay: CD melting at 293 nm. The conditions noted are these: 100 mM KCl; 10 mM Tris-HCl, 1 mM Na2EDTA, pH 7.4, 10% ethylene glycol; equimolar 3.93 µM compound and DNA (1:1).
Assay [3] shares this test system. The assay is described as follows: fluorescence titration, Scatchard, two-line linear fit. Particulars: 100 mM KCl; 10 mM Tris-HCl, 1 mM Na2EDTA, pH 7.4, ≤10% ethylene glycol; 5 µM compound; site 1 of 2.
For assay [4], the system named is fluorescein-labelled telomeric G-quadruplex DNA (DNA, G4) AGGGTTAGGGTTAGGGTTAGGG
The assay is described as follows: fluorescein fluorescence quenching. Particulars: 100 mM KCl; 10 mM Tris-HCl, 1 mM Na2EDTA, pH 7.4; 2 µM DNA; more than 90% quenching.

For orientation: ΔTm means the change in melting temperature against a reference sample. In the case of `CN(C)c1cc2c(Nc3ccc4c(cnn4Cc4ccccc4)c3)ncnc2cn1`, the K in assay [1] is 2.65e+06 M⁻¹. Further, the ΔTm in assay [2] came to 9.9 °C. The compound also displayed a K1 in assay [3] of 1.3e+08 M⁻¹. Also, in assay [4], the binding result is on record as “yes”.

`COc1ccc(CCCn2ncc3c2nc(N)n2nc(-c4ccco4)nc32)cc1` gave a K in assay [1] of 700000 M⁻¹. For the same compound, in assay [2], the ΔTm was found to be 9.6 °C. The compound further had a K1 in assay [3] of 1.55e+07 M⁻¹. The binding result in assay [4] is “yes”.
